# Laboratory results published in patent US5498632A, “Esters of acyl carnitines with long-chain aliphatic alcohols and pharmaceutical compositions containing same having antibacterial activity” (Sigma-Tau Industrie Farmaceutiche Riunite S.p.A., priority 1992, dated 1996).
# Where “and” joins values, the source holds several entries; their conditions need not be identical. Equal entries are not always repeated.
# Columns and labels:
# [1] = system: Staphylococcus aureus (S. aureus LC1); assay: Protective effect in subcutaneous experimental infection in mice; format: in vivo, Staphylococcus aureus in mouse (male CD1); conditions: for Number of bacteria/mouse: 24 hours
# Experimental: Male CD1 (C. River) mice aged 9 weeks were used (4 animals per group).
# A pathogenic strain of Staphylococcus aureus (S. aureus LC1), isolated from a systemic infection in nude mice, was utilized.
# The bacterial cells (kept under liquid nitrogen) are thawed and seeded in 10 ml of TSB medium and finally incubated for approximately 18 hours at 37° C.
# The culture is then diluted in sterile saline so as to have 2.2×10^7 bacterial cells in a volume of 0.2 ml.
# ST 722 was administered subcutaneously, immediately after bacterial inoculation, at the doses of 5, 20, and 50 mcg in 0.2 ml of sterile saline (single treatment).
# ST 722 was administered subcutaneously at a dose of 50 mcg (in 0.2 ml of sterile saline) immediately after bacterial inoculation and again 5 hours later, i.e. 100 total mcg per mouse (double treatment).
# The "in vivo" experimental model described by Grunberg et al. (GRUNBERG, E., BERGER, J., BESKID, G., CLEELAND, R., PRINCE, N. H. and TITSWORTH, E., 1967. Studies on the "in vitro" and "in vivo" chemotherapeutic properties of the antibiotics myxin. Chemotherapia 12, 272-281) was utilized.
# Briefly, it consisted of a subcutaneous injection into the center of the abdominal wall of the standardized bacterial suspension followed by the s.c. administration of the substance in the same area according to the 2 protocols above.
# After 24 hours, the animals were sacrificed, and the abdominal wall (including the peritoneum) was exicised from each animal.
# The tissue samples were first homogenized by a Potter-Elvehjem tissue grinder in 5 ml of a sterile saline, then a bacterial count was performed by plating the samples onto a S. aureus selective medium (Baird-Parker agar additioned with Ey tellurite enrichment), which allows to easily detect the number of Staphylococcus colonies.
# The number of colonies scored in a series of dilutions for each single sample consents to calculate the number of bacterial cells present in the infected tissue sample as follows: [formula] Where Zi is the number of dilutions performed, Ni is the number of plates prepared for each dilution, and Ci is the total number of bacteria scored in each dilution.
# [2] = system: H. pylori planktonic cells (NCTC 11637); assay: Bactericidal effect against H. pylori planktonic cells; format: cell-based, Helicobacter pylori
# Excerpt: The investigation aimed at evaluating the difference in susceptibility to ST 722 of planktonic and sessile Helicobacter cells, using in the latter case an "in vitro" experimental model, which closely resembled the clinical condition occurring "in vivo" in type-B gastritis. We used HEp-2 cells, an epithelial cell line which harbors the same membrane glycolipid receptors for H. pylori as those harbored by the mucous cells of the antral gastric mucosa (MEGRAUD, F., TRIMOULET, P., LAMOULIATTE, H. and BOYANOVA, L., 1991. Bacterial effect of Amoxicillin on "H. pylori" in an in vitro model using epithelial cells. Antimicrob. Agents Chemoter. 35 (5): 869-872 and LINGWOOD, C. A., LAW, H. and PELLIZANI, A., 1989. Gastric glycerolipid as a receptor for Campylobacter pylori. Lancet i: 238-241). Additionally, the viability of HEp-2 cells (either infected or not) was evaluated following "in vitro" ST 722 treatment. The degree of cytotoxicity was assessed by cytofiuorimetric analysis of Propidium Iodine-stained HEp-2 cells.
# Helicobacter pylori NCTC 11637.
# The antibacterial and cytotoxic activity of ST 722 against Helicobacter and HEp-2 cells, respectively, was evaluated by using 3 different ST 722 concentrations, namely 0.1, 1.56 (i.e. the MIC value vs. H. pylori NCTC 11637) and 4 mcg/ml.
# After making geometric dilutions of the suspensions (0.1 ml of each dilution inoculated onto each plate in triplicate), the plates were incubated for 7 days in a microaerobic atmosphere, and the plates with 30 to 200 CFU were counted.
# The ST 722 activity against Helicobacter planktonic cells was determined in the same experimental conditions in the absence of HEp-2 cells. Finally, the results are expressed as CFU per flask of each sample with respect to the relevant control (i.e. sessile or planktonic cultures).
compound,measurement,setting,value
"CCCCCCCCCCCOC(=O)CC(C[N+](C)(C)C)OC(=O)CC(C)C [ST 722, Isovaleryl-L-Carnitine Undecyl Ester Chloride]",Number of bacteria/mouse,"[1]; double treatment s.c., 50 mcg twice (5 hours apart)",3.1×10^5 bacteria/mouse and 5.61 × 10^5 bacteria/mouse
same,reduction of the infective process,"[1]; single treatment s.c., 5 mcg",unable to reduce the infective process
same,Number of bacteria/mouse,"[1]; single treatment s.c., 5 mcg, control 1.11 × 10^8",1.21 × 10^8 bacteria/mouse
same,reduction of bacterial infection extent,"[1]; single treatment s.c., 20 and 50 mcg",dose-dependently reduced in an appreciable manner the bacterial infection extent
same,Number of bacteria/mouse,"[1]; single treatment s.c., 20 mcg, control 1.11 × 10^8",1.21 × 10^8 bacteria/mouse
same,Number of bacteria/mouse,"[1]; single treatment s.c., 50 mcg, control 1.11 × 10^8",5.61 × 10^5 bacteria/mouse
same,Planktonic cells (CFU per flask),"[2]; 3-h contact, 0.1 mcg/ml",9.50 × 10^5 CFU per flask
same,Planktonic cells (CFU per flask),"[2]; 3-h contact, 1.56 mcg/ml",3.50 × 10^5 CFU per flask
same,Planktonic cells (CFU per flask),"[2]; 3-h contact, 4.0 mcg/ml",1.00 × 10^5 CFU per flask
same,Planktonic cells (CFU per flask),"[2]; 24-h contact, 0.1 mcg/ml",9.00 × 10^7 CFU per flask
same,Planktonic cells (CFU per flask),"[2]; 24-h contact, 1.56 mcg/ml",4.05 × 10^6 CFU per flask
same,Planktonic cells (CFU per flask),"[2]; 24-h contact, 4.0 mcg/ml, control 5.35 × 10^8",1.85×10^6 CFU per flask
same,complete medium sterilization,[2]; planktonic cells,a complete medium sterilization was not attained
